Test results as given in US9770026B2, “Substituted pyrimidine compound and uses thereof” (Shenyang Sinochem Agrochemicals R&D Co., Ltd., priority 2012, dated 2017).

Columns and labels:
[1] = test system: Green peach aphids (Myzus Persicae Sulzer); experiment: bioactivity test against green peach aphid, airbrush foliar spray; type: in vivo
Procedure, shortened: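 Death rate was scored at 48 hrs, held at 25±1 C and 60±5% RH, following airbrush foliar spray (0.5 mL, 10 psi) onto cabbage leaf discs bearing about 15-30 aphids. Test solutions: compound dissolved in 1:1 acetone:methanol, brought to concentration with 0.1% tween 80 water.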

wheat powdery mildew = experiment: protectant activity in vivo against wheat powdery mildew
cucumber downy mildew = experiment: protectant activity in vivo against cucumber downy mildew
carmine spider mite = experiment: bioactivity test against carmine spider mite, airbrush spray; type: in vivo
Procedure, shortened: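 Broadbean seedlings infested with adult mites were sprayed with compound (acetone/methanol stock diluted in 0.1% Tween 80 water) by airbrush at 0.7 kg/cm^2, 0.5 ml. Three replicates were run. Mortality was scored after 72 hrs.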

Diamond back moth = experiment: insecticidal activity against diamond back moth, airbrush spray; type: in vivo
Description: (§1) Compounds were dissolved in mixed solvent (acetone:methanol=1:1), and diluted to required concentration with water containing 0.1% of tween 80.
(§2) Diamond back moth, armyworm, peach aphid and carmine spider mite were used as targets and the method of spraying by airbrush was used for determination of insecticidal biassays.
(§3) The method of spraying by airbrush: The cabbage leaves were made into plates of 2 cm diameter by use of punch. A test solution (0.5 ml) was sprayed by airbrush at the pressure of 0.7 kg/cm^2 to both sides of every plate. 10 Second instar larvae were put into the petri-dishes after the leaf disc air-dried and 3 replicates were set for each treatment. Then the insects were maintained in observation room (25° C., 60˜70% R.H.). Scores were conducted and mortalities were calculated after 72 hrs.

armyworm = experiment: bioactivity test against armyworm, airbrush spray; type: in vivo
Description: as §1, §2
as §3, with “corn” for “cabbage”, “(25 °C,” for “(25° C.,”, “h.” for “hrs.”

corn rust = experiment: protectant activity in vivo against corn rust; conditions: Zea mays, 168 h
[2] = 100 ppm, mortality after 72 hrs
[3] = 600 ppm, mortality after 72 hrs

CCc1ncnc(NCCc2ccc(Oc3ccc(C#N)cn3)cc2)c1Cl [Compound I-255]
control (test results against green peach aphid) ([1]; 10 ppm, death rate after 48 hrs): 100%
control (test results against green peach aphid) ([1]; 100 ppm, death rate after 48 hrs): 100%
control (test results against green peach aphid) ([1]; 600 ppm, death rate after 48 hrs): 100%
protectant activity against wheat powdery mildew in vivo (wheat powdery mildew; 25 ppm): 100%
protectant activity against wheat powdery mildew in vivo (wheat powdery mildew; 100 ppm): 100%
protectant activity against wheat powdery mildew in vivo (wheat powdery mildew; 400 ppm): 100%
protectant activity against cucumber downy mildew in vivo (cucumber downy mildew; 25 ppm): 100%
protectant activity against cucumber downy mildew in vivo (cucumber downy mildew; 50 ppm): 100%
protectant activity against cucumber downy mildew in vivo (cucumber downy mildew; 100 ppm): 100%
protectant activity against cucumber downy mildew in vivo (cucumber downy mildew; 400 ppm): 100%
Insecticidal activity against carmine spider mite (% ) (carmine spider mite; 2.5 mg/L): 72%
Insecticidal activity against carmine spider mite (% ) (carmine spider mite; 5 mg/L): 84%
Insecticidal activity against carmine spider mite (% ) (carmine spider mite; 10 mg/L, contrastive test): 85%
Insecticidal activity against carmine spider mite (% ) (carmine spider mite; 100 mg/L, contrastive test): 100%
Insecticidal activity against carmine spider mite (% ) (carmine spider mite; 600 mg/L, contrastive test): 100%
control against carmine spider mite (carmine spider mite; [2]): 100%
control against carmine spider mite (carmine spider mite; [3]): 100%
Insecticidal activity against diamond back moth (%) (Diamond back moth; 10 mg/L): 43%
Insecticidal activity against diamond back moth (%) (Diamond back moth; 100 mg/L): 100%
Insecticidal activity against diamond back moth (%) (Diamond back moth; 600 mg/L): 100%
control (test results against diamond back moth) (Diamond back moth; [2]): 100%
control (test results against diamond back moth) (Diamond back moth; [3]): 100%
Insecticidal activity against armyworm (%) (armyworm; 10 mg/L): 25%
Insecticidal activity against armyworm (%) (armyworm; 100 mg/L): 100%
Insecticidal activity against armyworm (%) (armyworm; 600 mg/L): 100%
control (test results against armyworm) (armyworm; 100 ppm, mortality after 72 h): 100%
control (test results against armyworm) (armyworm; 600 ppm, mortality after 72 h): 100%

FC(F)c1ncnc(NCCc2ccc(Oc3ccc(Cl)cc3)cc2)c1Cl [II-8915]
pest or weed control at 1.25 µg/mL ([1]; Myzus persicae, foliar, 48 h, 1.25 mg/L, contrastive test, read-out: Insecticidal activity against peach aphid (%)): 100%
pest or weed control at 2.5 µg/mL ([1]; Myzus persicae, foliar, 48 h, 2.5 mg/L, contrastive test, read-out: Insecticidal activity against peach aphid (%)): 100%
pest or weed control at 5 µg/mL ([1]; Myzus persicae, foliar, 48 h, 5 mg/L, contrastive test, read-out: Insecticidal activity against peach aphid (%)): 100%
pest or weed control at 10 µg/mL ([1]; Myzus persicae, foliar, 48 h, 10 mg/L, contrastive test, read-out: Insecticidal activity against peach aphid (%)): 100%
pest or weed control at 100 µg/mL ([1]; Myzus persicae, foliar, 48 h, 100 mg/L, contrastive test, read-out: Insecticidal activity against peach aphid (%)): 100%
pest or weed control at 600 µg/mL ([1]; Myzus persicae, foliar, 48 h, 600 mg/L, contrastive test, read-out: Insecticidal activity against peach aphid (%)): 100%
pest or weed control at 2.5 ppm ([1]; Myzus persicae, foliar, 48 h, 2.5 ppm, death rate after 48 hrs): 100%
pest or weed control at 5 ppm ([1]; Myzus persicae, foliar, 48 h, 5 ppm, death rate after 48 hrs): 100%
pest or weed control at 10 ppm ([1]; Myzus persicae, foliar, 48 h, 10 ppm, death rate after 48 hrs): 100%
pest or weed control at 100 ppm ([1]; Myzus persicae, foliar, 48 h, 100 ppm, death rate after 48 hrs): 100%
pest or weed control at 600 ppm ([1]; Myzus persicae, foliar, 48 h, 600 ppm, death rate after 48 hrs): 100%
pest or weed control at 3.125 µg/mL (cucumber downy mildew; Cucumis sativus, 168 h, read-out: control effect against cucumber downy mildew (%), 3.125 mg/L, protectant activity): 20%
pest or weed control at 6.25 µg/mL (cucumber downy mildew; Cucumis sativus, 168 h, read-out: control effect against cucumber downy mildew (%), 6.25 mg/L, protectant activity): 90%
pest or weed control at 12.5 µg/mL (cucumber downy mildew; Cucumis sativus, 168 h, read-out: control effect against cucumber downy mildew (%), 12.5 mg/L, protectant activity): 95%
pest or weed control at 25 µg/mL (cucumber downy mildew; Cucumis sativus, 168 h, read-out: control effect against cucumber downy mildew (%), 25 mg/L, protectant activity): 99%
pest or weed control at 50 µg/mL (cucumber downy mildew; Cucumis sativus, 168 h, read-out: control effect against cucumber downy mildew (%), 50 mg/L, protectant activity): 100%
pest or weed control at 100 µg/mL (cucumber downy mildew; Cucumis sativus, 168 h, read-out: control effect against cucumber downy mildew (%), 100 mg/L, protectant activity): 100%
pest or weed control at 400 µg/mL (cucumber downy mildew; Cucumis sativus, 168 h, read-out: control effect against cucumber downy mildew (%), 400 mg/L, protectant activity): 100%
pest or weed control at 6.25 ppm (cucumber downy mildew; Cucumis sativus, 168 h, read-out: protectant activity against cucumber downy mildew in vivo, 6.25 ppm): 80 to 99%
pest or weed control at 12.5 ppm (cucumber downy mildew; Cucumis sativus, 168 h, read-out: protectant activity against cucumber downy mildew in vivo, 12.5 ppm): 80 to 99%
pest or weed control at 25 ppm (cucumber downy mildew; Cucumis sativus, 168 h, read-out: protectant activity against cucumber downy mildew in vivo, 25 ppm): 80 to 99%
pest or weed control at 50 ppm (cucumber downy mildew; Cucumis sativus, 168 h, read-out: protectant activity against cucumber downy mildew in vivo, 50 ppm): 80 to 99%
pest or weed control at 100 ppm (cucumber downy mildew; Cucumis sativus, 168 h, read-out: protectant activity against cucumber downy mildew in vivo, 100 ppm): 100%
pest or weed control at 400 ppm (cucumber downy mildew; Cucumis sativus, 168 h, read-out: protectant activity against cucumber downy mildew in vivo, 400 ppm): 100%
pest or weed control at 100 ppm (carmine spider mite; Tetranychus cinnabarinus, 72 h, 100 ppm, mortality after 72 hrs): 100%
pest or weed control at 600 ppm (carmine spider mite; Tetranychus cinnabarinus, 72 h, 600 ppm, mortality after 72 hrs): 100%
pest or weed control at 600 ppm (Diamond back moth; 72 h, 600 ppm, mortality after 72 hrs, read-out: control (test results against diamond back moth)): 100%
pest or weed control at 10 µg/mL (armyworm; 72 h, 10 mg/L, read-out: Insecticidal activity against armyworm (%)): 44%
pest or weed control at 100 µg/mL (armyworm; 72 h, 100 mg/L, read-out: Insecticidal activity against armyworm (%)): 95%
pest or weed control at 600 µg/mL (armyworm; 72 h, 600 mg/L, read-out: Insecticidal activity against armyworm (%)): 100%
pest or weed control at 100 ppm (armyworm; 72 h, 100 ppm, mortality after 72 h): 80 to 99%
pest or weed control at 600 ppm (armyworm; 72 h, 600 ppm, mortality after 72 h): 100%
pest or weed control at 0.4 µg/mL (corn rust; read-out: control effect against corn rust (%), 0.4 mg/L, protectant activity): 30%
pest or weed control at 1.6 µg/mL (corn rust; read-out: control effect against corn rust (%), 1.6 mg/L, protectant activity): 80%
pest or weed control at 6.25 µg/mL (corn rust; read-out: control effect against corn rust (%), 6.25 mg/L, protectant activity): 100%
pest or weed control at 25 µg/mL (corn rust; read-out: control effect against corn rust (%), 25 mg/L, protectant activity): 100%
pest or weed control at 100 µg/mL (corn rust; read-out: control effect against corn rust (%), 100 mg/L, protectant activity): 100%
pest or weed control at 400 µg/mL (corn rust; read-out: control effect against corn rust (%), 400 mg/L, protectant activity): 100%
pest or weed control at 6.25 ppm (corn rust; read-out: protectant activity against corn rust in vivo, 6.25 ppm): 100%
pest or weed control at 25 ppm (corn rust; read-out: protectant activity against corn rust in vivo, 25 ppm): 100%
pest or weed control at 100 ppm (corn rust; read-out: protectant activity against corn rust in vivo, 100 ppm): 100%
pest or weed control at 400 ppm (corn rust; read-out: protectant activity against corn rust in vivo, 400 ppm): 100%
